In US10975049B2, “Nicotinyl alcohol ether derivative, preparation method therefor, and pharmaceutical composition and uses thereof” (Institute of Materia Medica, Chinese Academy of Medical …, priority 2016, dated 2021):
Where a name gives a salt, the structure may show the parent alone.

Experiments:
[1] = test system: high metastatic melanoma B16F10; assay: Subcutaneous xenograft model of high metastatic melanoma B16F10; type: in vivo, C57BL/6 or Bablc mice; details: for T/C % (relative tumor proliferation rate) / TGI % (tumor growth inhibition rate): tumor weight
Method: (§1) The method in subcutaneous xenograft tumor was as follows. The cultured specific tumor cells were digested and collected by centrifugation, and washed with sterile physiological saline for two times and then counted. The cell concentration was adjusted to 5×10^6/ml by physiological saline, and 0.2 ml of cell suspension was inoculated to the right armpit of C57BL/6 or Bablc mice. After inoculation, the animals were randomly divided into two groups in next day. Each group had 6-7 mice. After weighing, the animals were dosed once each day to monitor tumor size. When the tumor size reached to a certain size, the mice was weighed and blood was collected from mice orbit and then the mice were killed by removing the neck. The tumor tissue, thymus tissue and spleen tissue were collected and weighed respectively. Finally, the tumor growth inhibition rate was calculated, and the tumor growth inhibition rate was used to evaluate the level of anti-tumor effect.
(§2) In the study of the mechanism of the above models, the method of flow cytometry was adopted in measuring the total cell proportion of T cells of various types. The specific steps were as follows. The samples were treated at first. For blood tissue, the orbital blood was taken. The red cell lysate was used to remove the red blood cells, and then the PBS buffer was used for wash. After being washed, the cells were collected. For the tumor and spleen, the tissues were grinded with a homogenizer, and then diluted with PBS buffer, then filtered by 300 meshes of screen. After the number of cells was counted for each sample, 1×10^6 cells were added into EP tube and stained for flow antibody. After incubation for 1 h on ice, each sample was washed 2 times with PBS buffer. The cell population was analyzed by VERSE flow instrument of BD Company. The total number of cells in tumor tissue was 1×10^5 and the total number of cells in blood and spleen tissues was 1×10^4. The ratio of T cells to total number of cells was analyzed after flow cytometry.

[2] = test system: high metastatic melanoma B16F10; assay: Lung metastasis model of high metastatic melanoma B16F10; type: in vivo, C57BL/6 mice; details: for Tumor number X ± SD: lung; for T/C % (relative tumor proliferation rate) / TGI % (tumor growth inhibition rate): tumor number
Method: The method in B16F10 lung metastasis model was as follows. The cultured B16F10 tumor cells were digested and centrifuged and washed for two times with sterile physiological saline and then counted. And the cell concentration was adjusted to 2.5×10^6/ml by physiological saline. 0.2 ml of cells were injected into the C57BL/6 mice through the tail vein, and the tumor cells will gather in the lung of the mice. After inoculation, the animals were randomly divided into two groups in next day. Each group had 6-7 mice. After weighing, the animals were dosed once each day. After 3 weeks, the mice were weighed and killed, the lung tissue was collected and weighed, and the number of lung tumors was counted after being fixed by the Bouin's Fluid. Finally, the tumor growth inhibition rate was calculated, and the tumor growth inhibition rate was used to evaluate the level of anti-tumor effect.
as §2

[3] = test system: mouse breast cancer EMT6; assay: Subcutaneous xenograft model of mouse breast cancer EMT6; type: in vivo, C57BL/6 or Bablc mice
Method: as §1

[4] = test system: mouse colon cancer MC38; assay: Subcutaneous xenograft model of mouse colon cancer MC38; type: in vivo, C57BL/6 or Bablc mice; details: 60 mg/kg
Method: as §1

[5] = molecular target: interaction between PD-1 and PD-L1 (Homo sapiens (Human), UniProt Q9NZQ7); assay: Cisbio PD-1/PD-L1 binding assay kit (HTRF); details: molecular level, read-out: IC50 (M), inhibitory activity on the interaction between PD-1 and PD-L1
interaction between PD-1 and PD-L1, sequence (Q9NZQ7 19-238): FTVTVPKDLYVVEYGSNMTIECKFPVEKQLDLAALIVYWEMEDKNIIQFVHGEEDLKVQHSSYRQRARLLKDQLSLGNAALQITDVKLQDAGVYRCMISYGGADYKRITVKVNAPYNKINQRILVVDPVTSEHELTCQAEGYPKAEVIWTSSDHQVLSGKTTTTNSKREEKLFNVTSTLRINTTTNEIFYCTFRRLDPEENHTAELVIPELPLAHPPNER
Text: 1. In vitro activity evaluation: Cisbio PD-1/PD-L1 binding assay kit was applied for the detection method of in vitro enzymology level.
Screening Principles and Methods of PD-1/PD-L1 Small Molecule Inhibitors
1) Principle: PD-1 protein is with HIS tag, and PD-1 ligand PD-L1 is with hFc tag. Eu labeled anti-hFc antibody and XL665 labeled anti-HIS antibody are combined with the above two label proteins respectively. After laser excitation, energy can be transferred from donor Eu to receptor XL665, allowing XL665 to glow.
2) Experimental method: The specific method can be referred to Cisbio's PD-1/PD-L1 Kit (item 64CUS000C-2). Reagents should be dispensed in the following order. For 384-well white ELISA plate, 2 μl of diluent or target compound diluted with diluent was added to each well, and then 4 μl of PD-1 protein and 4 μl of PD-L1 protein were added per well, incubated for 15 min at room temperature; and 10 μl of a mixture of anti-Tag1-Eu3^+ and anti-Tag2-XL665 was added per well and incubated for 1 h to 4 h at room temperature and the fluorescence signals at 665 nm and 620 nm were measured with an Envison instrument. HTRF rate=(665 nm/620 nm)*10^4. 8-10 concentrations were detected for each compound and IC50 was calculated by Graphpad software.

[6] = spleen, CTX group, dose not given

SMILES: O=P1(N(CCCl)CCCl)NCCCO1 (stereo not shown) [Cyclophosphamide (CTX), Cyclophosphamide, reference compound]
- Tumorweight(g) X ± SD ([1]; 80 mg/kg): 1.55 ± 0.59 g
- Body weight (g) Mean ± SD Begin ([1]; 80 mg/kg): 20.3 ± 0.8 g
- Body weight (g) Mean ± SD End ([1]; 80 mg/kg): 23.3 ± 1.4 g
- T/C % (relative tumor proliferation rate) ([1]; 80 mg/kg): 60.00%
- TGI % (tumor growth inhibition rate) ([1]; 80 mg/kg): 40.00%
- CD3+ (%) T lymphocytes in spleen [1, 6]: 78.6 ± 2.5%
- CD4+ (%) T lymphocytes in spleen [1, 6]: 24.6 ± 2.6%
- CD8+ (%) T lymphocytes in spleen [1, 6]: 15.2 ± 3.1%
- CD3+ (%) tumor-infiltrating T lymphocytes ([1]; CTX group, dose not given): 3.6 ± 1.5%
- CD4+ (%) tumor-infiltrating T lymphocytes ([1]; CTX group, dose not given): 1.7 ± 0.4%
- CD8+ (%) tumor-infiltrating T lymphocytes ([1]; CTX group, dose not given): 1.4 ± 0.3%
- Body weight (g) Mean ± SD Begin ([2]; 80 mg/kg): 20.1 ± 0.8 g
- Body weight (g) Mean ± SD End ([2]; 80 mg/kg): 21.4 ± 0.5 g
- Tumor number X ± SD ([2]; 80 mg/kg): 18 ± 14
- T/C % (relative tumor proliferation rate) ([2]; 80 mg/kg): 85.7%
- TGI % (tumor growth inhibition rate) ([2]; 80 mg/kg): 14.3%
- CD3+ percentage of T lymphocyte in mouse blood ([2]; CTX group, dose not given): 22.4 ± 5.5%
- CD4+ percentage of T lymphocyte in mouse blood ([2]; CTX group, dose not given): 13.0 ± 2.4%
- CD8+ percentage of T lymphocyte in mouse blood ([2]; CTX group, dose not given): 7.5 ± 2.4%
- T/C % (relative tumor proliferation rate) ([3]; 60 mg/kg): 14.1%
- TGI % (tumor growth inhibition rate) ([3]; 60 mg/kg): 85.9%
- Tumorweight(g) X ± SD ([3]; 60 mg/kg): 0.25 ± 0.17 g
- Body weight (g) Mean ± SD Begin ([3]; 60 mg/kg, begin): 18.4 ± 0.3 g
- Body weight (g) Mean ± SD End ([3]; 60 mg/kg, end): 19.4 ± 0.7 g
- tumor growth inhibition rate ([3]; Cyclophosphamide alone vs combination, dose not restated): 85%
- T/C % (relative tumor proliferation rate) [4]: 5.4%
- TGI % (tumor growth inhibition rate) [4]: 94.6%
- Tumor weight(g) Mean ± SD [4]: 0.17 ± 0.05 g
- Body weight (g) Mean ± SD Begin ([4]; begin): 17.9 ± 0.6 g
- Body weight (g) Mean ± SD End ([4]; end): 19.1 ± 0.8 g

SMILES: CCOC(=O)C(CO)NCc1cc(Cl)c(OCc2cccc(-c3ccccc3)c2Br)cc1OCc1cccnc1 (stereo not shown) [Example 1, Ethyl N-(4-(2-bromo-3-phenylbenzyloxy)-5-chloro-2-(pyridin-3-yl-methyleneoxy)benzyl) serinate dihydrochloride]
- IC50 [5]: 1.48e-07 M

SMILES: CCOC(=O)[C@H](CO)NCc1cc(Cl)c(OCc2cccc(-c3ccccc3)c2Br)cc1OCc1cccnc1.Cl.Cl [Example 5, (S)-Ethyl N-(4-(2-bromo-3-phenylbenzyloxy)-5-chloro-2-(pyridin-3-yl-methyleneoxy)benzyl) serinate dihydrochloride]
- Tumorweight(g) X ± SD ([1]; 15 mg/kg): 2.69 ± 1.99 g
- Body weight (g) Mean ± SD Begin ([1]; 15 mg/kg): 20.4 ± 1.0 g
- Body weight (g) Mean ± SD End ([1]; 15 mg/kg): 24.2 ± 2.2 g
- T/C % (relative tumor proliferation rate) ([1]; 15 mg/kg): 104.26%
- TGI % (tumor growth inhibition rate) ([1]; 15 mg/kg): −4.26%
- Tumorweight(g) X ± SD ([1]; 45 mg/kg): 1.41 ± 0.60 g
- Body weight (g) Mean ± SD Begin ([1]; 45 mg/kg): 20.3 ± 1.0 g
- Body weight (g) Mean ± SD End ([1]; 45 mg/kg): 22.6 ± 1.4 g
- T/C % (relative tumor proliferation rate) ([1]; 45 mg/kg): 54.73%
- TGI % (tumor growth inhibition rate) ([1]; 45 mg/kg): 45.27%
- proportion of tumor-infiltrating lymphocytes ([1]; result in words): increase
- CD3+ (%) tumor-infiltrating T lymphocytes ([1]; 45 mg): 10.1 ± 4.5%
- CD4+ (%) tumor-infiltrating T lymphocytes ([1]; 45 mg): 9.0 ± 4.7%
- CD8+ (%) tumor-infiltrating T lymphocytes ([1]; 45 mg): 5.2 ± 2.8%
- Body weight (g) Mean ± SD Begin ([2]; 15 mg/kg): 20.6 ± 0.7 g
- Body weight (g) Mean ± SD End ([2]; 15 mg/kg): 20.2 ± 1.5 g
- Tumor number X ± SD ([2]; 15 mg/kg): 18 ± 18
- T/C % (relative tumor proliferation rate) ([2]; 15 mg/kg): 85.7%
- TGI % (tumor growth inhibition rate) ([2]; 15 mg/kg): 14.3%
- Body weight (g) Mean ± SD Begin ([2]; 45 mg/kg): 20.5 ± 0.6 g
- Body weight (g) Mean ± SD End ([2]; 45 mg/kg): 21.2 ± 0.7 g
- Tumor number X ± SD ([2]; 45 mg/kg): 16 ± 7
- T/C % (relative tumor proliferation rate) ([2]; 45 mg/kg): 76.2%
- TGI % (tumor growth inhibition rate) ([2]; 45 mg/kg): 23.8%
- CD3+ percentage of T lymphocyte in mouse blood ([2]; 15 mg): 22.7 ± 4.8%
- CD4+ percentage of T lymphocyte in mouse blood ([2]; 15 mg): 14.4 ± 3.3%
- CD8+ percentage of T lymphocyte in mouse blood ([2]; 15 mg): 7.4 ± 1.9%
- CD3+ percentage of T lymphocyte in mouse blood ([2]; 45 mg): 25.8 ± 3.0%
- CD4+ percentage of T lymphocyte in mouse blood ([2]; 45 mg): 15.7 ± 2.5%
- CD8+ percentage of T lymphocyte in mouse blood ([2]; 45 mg): 7.6 ± 1.8%
- percentage of lymphocyte in mouse blood ([2]; result in words): increase

SMILES: CC(C)OC(=O)[C@H](CO)NCc1cc(Cl)c(OCc2cccc(-c3ccccc3)c2Br)cc1OCc1cccnc1 [Example 6, (S)-isopropyl N-(4-(2-bromo-3-phenylbenzyloxy)-5-chloro-2-(pyridin-3-yl-methyleneoxy)benzyl) serinate dihydrochloride]
- IC50 [5]: 8.23e-08 M

SMILES: O=C(O)[C@@H](CO)NCc1cc(Cl)c(OCc2cccc(-c3ccccc3)c2Br)cc1OCc1cccnc1 [Example 8, (R)—N-(4-(2-bromo-3-phenylbenzyloxy)-5-chloro-2-(pyridin-3-yl-methyleneoxy)benzyl) serine]
- IC50 [5]: 4.29e-08 M

SMILES: O=C(O)CNCc1cc(Cl)c(OCc2cccc(-c3ccccc3)c2Br)cc1OCc1cccnc1 [Example 12, N-(4-(2-bromo-3-phenylbenzyloxy)-5-chloro-2-(pyridin-3-yl-methyleneoxy)benzyl) glycine]
- IC50 [5]: 4.11e-08 M

SMILES: CC(C)C(NCc1cc(Cl)c(OCc2cccc(-c3ccccc3)c2Br)cc1OCc1cccnc1)C(=O)O (stereo not shown) [Example 13, N-(4-(2-bromo-3-phenylbenzyloxy)-5-chloro-2-(pyridin-3-yl-methyleneoxy)benzyl) valine]
- IC50 [5]: 2e-07 M

SMILES: C/C(=C\C#N)NCc1cc(Cl)c(OCc2cccc(-c3ccccc3)c2Br)cc1OCc1cccnc1 [Example 14, (E)-3-(4-(2-bromo-3-phenylbenzyloxy)-5-chloro-2-(pyridin-3-yl-methyleneoxy)benzylamino) but-2-enenitrile]
- IC50 [5]: 2.69e-05 M

SMILES: CS(=O)(=O)NCCNCc1cc(Cl)c(OCc2cccc(-c3ccccc3)c2Br)cc1OCc1cccnc1 [Example 16, N-(2-methanesulfonaminoethyl)-4-(2-bromo-3-phenylbenzyloxy)-5-chloro-2-(pyridin-3-yl-methyleneoxy)benzylamine]
- IC50 [5]: 1.99e-07 M

SMILES: CC(=O)NCCNCc1cc(Cl)c(OCc2cccc(-c3ccccc3)c2Br)cc1OCc1cccnc1 [Example 17, N-(2-acetylaminoethyl)-4-(2-bromo-3-phenylbenzyloxy)-5-chloro-2-(pyridin-3-yl-methyleneoxy) benzylamine]
- IC50 [5]: 5.51e-07 M

SMILES: CC(C)C[C@H](NCc1cc(Cl)c(OCc2cccc(-c3ccccc3)c2Br)cc1OCc1cccnc1)C(=O)O [Example 20, N-(4-(2-bromo-3-phenylbenzyloxy)-5-chloro-2-(pyridin-3-yl-methyleneoxy)benzyl) leucine]
- IC50 [5]: 6.1e-08 M
